Reference: patent US8192935B2, “Methods for assessing cisplatin resistance, disease progression, and treatment efficacy in ovarian cancer as related to MetAP2 expression” (The Penn State Research Foundation, priority 2003, dated 2012)
“And” between values parts separate entries of the source, which are not always exact repeats. Equal entries are not always repeated. Where two headings read alike, the source gives them in different places.

Assays:
OVCA 429 cells = conditions: for 429: increased sensitivity to cis-platin: OVCA 429 cells with specific siRNA
OVCAR-3 cells [1] = assay: tumor growth of OVCAR-3 cells in nude mice; type: in vivo; conditions: cis-platin 4 μg/kg IP 3 times a week for 2 weeks, then 1 week no treatment; one mouse
Protocol: The following protocol was developed for examining tumor growth using OVCAR-3 cells and nude mice: OVCAR-3 cells (15 million/injection) were inoculated under upper arm region of nude mice. Visible lumps appeared after 25 days. The tumors were measurable at about 35 days after inoculation and animals were then either treated with cis-platin at 4 μg/kg body weight administered by IP injection 3 times a week for 2 weeks, followed by 1 week with no treatment or treated with saline solution alone as control. […] A photograph of the tumors before and after cis-platin treatment is also shown.

OVCAR-3 cells [2] = assay: MTT assay, cis-platin sensitivity with siRNA; type: cell-based, human; conditions: OVCAR-3 cells with specific siRNA
Vinexin 13 (AF037261) = assay: siRNA-mediated knockdown of gene expression; type: cell-based, human; conditions: OVCA 429 cells
[3] = tested on: zinc finger protein 262/MYM (AB007885); assay: siRNA-mediated knockdown of gene expression; type: cell-based, human; conditions: OVCA 429 cells
eIF5 (U49436) = assay: siRNA-mediated knockdown of gene expression; type: cell-based, human; conditions: OVCA 429 cell

Compound: N.N.[Cl][Pt][Cl] [cis-platin]
- IC50 (OVCA 429 cells; read-out: IC50 of cis-platin alone, OVCA 429, 4 hours exposure (FIG. 40)): ~100 µM
- IC50 (OVCA 429 cells; read-out: IC50 of cis-platin, controls without specific siRNA or inhibitor, OVCA 429, 24 hour exposure, siPORT only or sense strand only): 25 to 50 µM and 25 µM and ~25 µM
- tumor size (OVCAR-3 cells [1]): stabilization of the tumor size

Compound: Vinexin β siRNA #2: siRNA to Vinexin (AF037261); target sequence AAGAGTTACCTAGAAGCACCT (guide AAGAGTTACCTAGAAGCACCT; target site or template, no part of the molecule; listed as DNA, chemistry not given here; listed as Homo Sapiens)
- 429: increased sensitivity to cis-platin (OVCA 429 cells): no
- OVCAR-3: increased sensitivity to cis-platin (OVCAR-3 cells [2]): yes
- reduction of Vinexin mRNA levels compared to control (Vinexin 13 (AF037261)): approximately 50%

Compound: Zinc finger protein 262/MYM siRNA #3: siRNA to zinc finger protein 262/MYM; target sequence AAAATATGGGAACCTACAATA (guide AAAATATGGGAACCTACAATA; target site or template, no part of the molecule; listed as DNA, chemistry not given here; listed as Homo Sapiens)
- reduction of zinc finger protein 262/MYM mRNA levels compared to control [3]: approximately 45%
- 429: increased sensitivity to cis-platin (OVCA 429 cells): yes
- OVCAR-3: increased sensitivity to cis-platin (OVCAR-3 cells [2]): yes

Compound: eIF5 siRNA #1: siRNA to eIF5; target sequence AATGACCGTTACATTGTCAAT (guide AATGACCGTTACATTGTCAAT; target site or template, no part of the molecule; listed as DNA, chemistry not given here; listed as Homo Sapiens)
- 429: increased sensitivity to cis-platin (OVCA 429 cells): yes
- OVCAR-3: increased sensitivity to cis-platin (OVCAR-3 cells [2]): yes
- reduction of eIF5 mRNA levels compared to control (eIF5 (U49436)): approximately 59%
